Results published in ChEMBL document CHEMBL1641538, “Synthesis of a novel human PPARδ selective agonist and its stimulatory effect on oligodendrocyte differentiation” (Bioorg Med Chem Lett, 2011).
Activity calls are given as the source filed them. The rule behind the calls is not given here.

Legend:
[1] = target: T1, Peroxisome proliferator-activated receptor alpha (Homo sapiens, UniProt Q07869); assay: Transactivation of Gal4-fused human PPARalpha DNA binding domain expressed in african green monkey CV1 cells by luciferase reporter gene assay; type: cell-based, CV-1
T1 sequence (Q07869 whole entry): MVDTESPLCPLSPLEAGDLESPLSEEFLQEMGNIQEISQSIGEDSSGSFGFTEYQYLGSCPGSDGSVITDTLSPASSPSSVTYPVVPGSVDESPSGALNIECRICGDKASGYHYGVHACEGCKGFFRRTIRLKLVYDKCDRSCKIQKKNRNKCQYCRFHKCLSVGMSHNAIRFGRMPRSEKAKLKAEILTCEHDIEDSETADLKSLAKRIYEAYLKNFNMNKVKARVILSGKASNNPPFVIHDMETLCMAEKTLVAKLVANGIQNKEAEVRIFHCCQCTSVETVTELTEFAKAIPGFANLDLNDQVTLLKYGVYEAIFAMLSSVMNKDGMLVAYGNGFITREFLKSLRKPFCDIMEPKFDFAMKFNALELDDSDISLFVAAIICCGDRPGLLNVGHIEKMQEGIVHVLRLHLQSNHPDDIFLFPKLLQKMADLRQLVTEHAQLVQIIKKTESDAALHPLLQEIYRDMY

[2] = target: T2, Peroxisome proliferator-activated receptor gamma (Homo sapiens, UniProt P37231); type: cell-based, CV-1
T2 sequence (P37231 whole entry): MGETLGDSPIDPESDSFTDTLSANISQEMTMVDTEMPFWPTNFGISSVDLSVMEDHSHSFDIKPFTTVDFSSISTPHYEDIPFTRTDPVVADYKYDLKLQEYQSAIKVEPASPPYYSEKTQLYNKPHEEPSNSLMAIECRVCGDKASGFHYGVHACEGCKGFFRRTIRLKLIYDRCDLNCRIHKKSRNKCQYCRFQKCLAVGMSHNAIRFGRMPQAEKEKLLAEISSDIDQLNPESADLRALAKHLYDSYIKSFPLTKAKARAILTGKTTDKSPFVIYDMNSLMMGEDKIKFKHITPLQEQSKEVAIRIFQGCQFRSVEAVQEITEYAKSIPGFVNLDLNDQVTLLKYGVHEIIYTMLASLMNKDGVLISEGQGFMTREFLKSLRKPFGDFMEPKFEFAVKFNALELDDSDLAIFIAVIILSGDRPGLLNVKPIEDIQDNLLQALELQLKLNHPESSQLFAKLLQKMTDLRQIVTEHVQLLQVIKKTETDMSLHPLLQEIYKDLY

[3] = target: T1, Peroxisome proliferator-activated receptor alpha; assay: Transactivation of full length human PPARalpha expressed in african green monkey CV1 cells by luciferase reporter gene assay; type: cell-based, CV-1
[4] = target: T2, Peroxisome proliferator-activated receptor gamma; assay: Transactivation of full length human PPARgamma expressed in african green monkey CV1 cells by luciferase reporter gene assay; type: cell-based, CV-1
[5] = target: T3, Peroxisome proliferator-activated receptor delta (Homo sapiens, UniProt Q03181); assay: Transactivation of full length human PPARdelta expressed in african green monkey CV1 cells by luciferase reporter gene assay; type: cell-based, CV-1
T3 sequence (Q03181 whole entry): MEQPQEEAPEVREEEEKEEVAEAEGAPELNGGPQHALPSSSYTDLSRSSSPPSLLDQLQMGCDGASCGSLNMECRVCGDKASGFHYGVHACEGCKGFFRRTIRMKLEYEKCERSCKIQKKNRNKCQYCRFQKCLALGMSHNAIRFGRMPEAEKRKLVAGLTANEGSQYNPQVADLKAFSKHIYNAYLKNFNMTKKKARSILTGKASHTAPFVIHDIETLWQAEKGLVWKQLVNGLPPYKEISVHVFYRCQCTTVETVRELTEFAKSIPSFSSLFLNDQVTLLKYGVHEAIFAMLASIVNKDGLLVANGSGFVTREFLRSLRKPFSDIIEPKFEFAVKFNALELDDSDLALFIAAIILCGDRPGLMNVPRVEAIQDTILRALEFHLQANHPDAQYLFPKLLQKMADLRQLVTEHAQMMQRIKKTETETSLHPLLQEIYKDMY

[6] = species: Homo sapiens; assay: Selectivity ratio of EC50 for full length human PPARalpha to EC50 for full length human PPARdelta
[7] = target: PPAR delta/gamma (Homo sapiens) (UniProt P37231+Q03181); assay: Selectivity ratio of EC50 for full length human PPARgamma to EC50 for full length human PPARdelta
[8] = species: Rattus norvegicus; assay: Induction of Wistar rat oligodendrocyte differentiation at 0.1 uM after 3 days by O1 antibody staining; type: functional
[9] = target: T3, Peroxisome proliferator-activated receptor delta; assay: Transactivation of Gal4-fused human PPARdelta DNA binding domain expressed in african green monkey CV1 cells by luciferase reporter gene assay; type: cell-based, CV-1

| EC50 [9] [nM] | Structure (SMILES) | EC50 [1] [µM] | EC50 [2] [µM] | EC50 [3] [µM] | EC50 [4] [µM] | EC50 [5] [nM] | Ratio EC50 [6] | Ratio EC50 [7] | Activity [8] |
| --- | --- | --- | --- | --- | --- | --- | --- | --- | --- |
|  | Cc1cc2c(CCc3nc(-c4ccc(Cl)cc4Cl)oc3C(C)C)noc2cc1OCC(=O)O | > 10 | > 10 | > 10 | > 10 | 4.5 | 2000 | 2000 | Active |
| 2600 | Cc1nc(-c2ccc(C(F)(F)F)cc2)sc1C(=O)NCc1ccc(OC(C)(C)C(=O)O)cc1 [GW590735] |  | > 10 |  |  |  |  |  |  |
